Laboratory results taken from patent US8258309B2, “Azapeptide derivatives” (priority 2007, dated 2012).
Like-named read-outs stand apart in the source and are kept apart here.

Legend:
[1] = Rat pharmacokinetics, intravenous and oral co-dosing of Compound 122 and atazanavir; assay type: in vivo; settings: male, Sprague-Dawley, plasma, rats, 1 mg/kg of each
Procedure: Rat Pharmacokinetics. […] Then the combo dose was prepared by mixing both by 1:1 to yield a final concentrations at 1 mg/mL for each compound (pH=5-6) for intravenous and oral administration. Male Sprague-Dawley rats (body weight: 170 g to 235 g) were used in this study. […] Blood samples (300 μL) were collected via the retro-orbital vein at pre-dose and 0.083, 0.25, 0.5, 1, 2, 4, 6, 8, 10, 12 and 24 hours post-dose. Blood samples were placed into heparinized eppendorf tubes (evaporated) and then centrifuged at 8000 rpm for 6 minutes. 100 μL aliquots of plasma were transferred to clean Eppendorf tubes and stored with the dose formulation at -20° C. until bioanalysis. For bioanalysis, plasma was thawed and added to it was 20 μL methanol and 500 μL of a 50 ng/ml internal standard solution (quetiapine in methanol). The sample was vortexed, centrifuged at 15,000 rpm for 5 minutes and the supernatant transferred to glass autosampler vials. Analyses of plasma samples were performed using a high performance liquid chromatography/mass spectrometry (HPLC/MS/MS) method. The LC system comprised an Agilent (Agilent Technologies Inc, USA) liquid chromatograph equipped with an isocratic pump (1100 series), an autosampler (1100 series) and a […]). Mass spectrometric analysis was performed using an API3000 (triple-quadrupole) instrument from AB Inc (Canada) with an ESI interface. The data acquisition and control system were created using Analyst 1.4 software from ABI Inc. Following intravenous co-administration of Compound 122 and atazanavir, atazanavir disappeared more rapidly from the blood.

[2] = Chimp pharmacokinetics Run A, IV or PO co-dosing of atazanavir and Compounds 114, 120, 122; assay type: in vivo, chimpanzee; settings: for concentration at 24 h: concentration detected intact in urine
Procedure: Chimp Pharmacokineties. Run A: A 4 mg/mL solution of atazanavir and each of Compounds 114, 120 and 122 were prepared in 10% DMI (dimethyl isosorbide), 15% EtOH, 35% PG in D5W. Specifically, for each compound, 240 mgs of compound was dissolved in a solution composed of 6 mL of DMI, 9 mL of EtOH and 21 mL PG. Once the compound was fully dissolved, 24 mL of D5W was added and the solution mixed.
Fifty-five mL of each drug solution is then combined and the mixture was sterile filtered using a 0.2 μm filter. This produced 220 mL of a 1:1:1:1 mixture atazanavir:Compound 114:Compound 120:Compound 122. The final concentration of each drug in the solution was 1 mg/mL. Each animal received 50 mL of this solution through either IV or PO routes.
Four chimps (two male and two female) were used in this study and were fasted overnight prior to administration of the compound solution. Animals were sedated with ketamine and/or telazol prior to dosing. Intravenous dosing was achieved by IV infusion over 30 minutes.
Approximately 4.5 mL of blood was collected into vacutainer tubes with sodium heparin as an anticoagulant at 0 (preinfusion), 15 min., 29.5 min (immediately before the end of the infusion), and then at 6, 15, 30, and 45 minutes, and 1, 2, 4, 6, 8, 10, 12, 24 hours after the infusion is stopped. A similar procedure was used to collect blood after oral dosing with samples taken at 0 (predose), 15, and 30 minutes, and at 1, 1.5, 2, 4, 6, 8, 10, 12, 24 hours postdose. Following sample collection, the vacutainer tubes were rocked by hand several times to insure adequate mixing. Blood samples were placed immediately on wet ice and centrifuged within 1 hour from time of collection. Following centrifugation, the resulting plasma was stored frozen at −70° C. until analysis. The results are summarized in FIGS. 4 and 5 and tables 6 and 7.

[3] = Microsomal assay: stability in human liver microsomes; assay type: in vitro ADME; settings: for half-life at 1 μM: liver microsomes
Procedure: Microsomal Assay. Human liver microsomes (20 mg/mL, pool of 50 individuals) were obtained from Xenotech LLC (Lenexa, Kans.). The incubation mixtures are prepared as follows. Stock solutions (10 mM) solutions of test Compounds 103, 106, 122 and of atazanavir were prepared in DMSO. The 10 mM stock solutions were diluted to 1 mM in acetonitrile (ACN). […] The microsome-test compound mixtures were added to wells of a 2 mL 96-well deep well polypropylene plate in triplicate. The plate was warmed to 37° C. before initiating the reactions by addition of prewarmed NADPH in 0.1 M potassium phosphate buffer, pH 7.4, containing 3 mM MgCl2. The final reaction mixture composition contained: • Liver Microsomes 0.5 mg/mL • NADPH 2 mM • Potassium Phosphate, pH 7.4 100 mM • Magnesium Chloride 3 mM • Test Compound 1.0 μM. The reaction mixtures were incubated at 37° C. and 50 μL aliquots were removed at 0, 3, 7, 12, 20, and 30 minutes and added to shallow-well 96-well plates which contained 50 μL of ice-cold ACN with internal standard to stop the reactions. The plates were stored at −20° C. for 30 minutes, after which 100 μL of water was added to the wells of the plate before centrifugation to pellet precipitated proteins. Supernatants were transferred to another 96-well plate and analyzed for amounts of parent remaining by LC-MS/MS using an Applied Biosystems API 4000 mass spectrometer. […] Data analysis was performed using Microsoft Excel Software. […] The results are shown in FIGS. 2 and 3 and in Table 3, below: […]

[4] = human, pH 7.4, human liver microsomes 0.5 mg/mL, 1.0 μM test compound, first run (Table 2), read-out: T1/2 ± SD
[5] = human, pH 7.4, human liver microsomes, repeated assay (Table 3), read-out: t1/2 (min) Avg ± SD (n = 3)

Row | AUC ([1]; intravenous co-dosing) [ng·h/mL] | half-life ([1]; intravenous co-dosing) [min] | AUC ([1]; oral co-dosing) [ng·h/mL] | Cmax ([1]; oral co-dosing) [ng/mL] | half-life ([1]; oral co-dosing) [min] | Ratio of urine concentration, compound:Atazanavir ([2]; chimp A242E, PO, 24 hours, Run A) | Ratio of urine concentration, compound:Atazanavir ([2]; chimp A336C, IV, 24 hours, Run A) | Ratio of urine concentration, compound:Atazanavir ([2]; chimpanzee, in vivo, iv, 24 h) | concentration detected intact in urine ([2]; chimpanzee, in vivo, iv, 24 h) [ng/mL] | concentration at 24 h ([2]; chimpanzee, in vivo, iv) [ng/mL] | Ratio of urine concentration, compound:Atazanavir ([2]; chimpanzee, in vivo, po, 24 h) | concentration detected intact in urine ([2]; chimpanzee, in vivo, po, 24 h) [ng/mL] | concentration at 24 h ([2]; chimpanzee, in vivo, po) [ng/mL] | half-life as compared to atazanavir ([3]; human liver microsomes, first run) | increase in half-life as compared to atazanavir ([3]; human, 1 μM, pH 7.4) [%] | half-life at 1 μM [3, 4] [min] | half-life at 1 μM [3, 5] [min] | Structure (SMILES)
1 | 503 ± 25.1 | 15 ± 1.2 | 156 ± 70.6 | 183 ± 113 | 27.6 ± 9.6 | 2.25 | 1.82 | 1.57 | 3250 | 3130 | 2.29 | 1180 | 1280 | increased half-life | ~67 | 35.4 ± 1.68 | 28.3 ± 0.3 | [2H]C([2H])([2H])OC(=O)N[C@H](C(=O)N[C@@H](Cc1ccccc1)[C@@H](O)CN(Cc1ccc(-c2ccccn2)cc1)NC(=O)[C@@H](NC(=O)OC([2H])([2H])[2H])C(C([2H])([2H])[2H])(C([2H])([2H])[2H])C([2H])([2H])[2H])C(C([2H])([2H])[2H])(C([2H])([2H])[2H])C([2H])([2H])[2H] [Compound 122, 1,14-Di(methyl-d3)(3S,8S,9S,12S)-3,12-bis[(1,1-dimethylethyl)-d9]-8-hydroxy-4,11-dioxo-9-(phenylmethyl)-6-[[4-(2-pyridinyl)phenyl]methyl]-2,5,6,10,13-pentaazatetradecanedioate]
2 | 475 ± 15.9 | 13.8 ± 0.6 | 86 ± 51.2 | 109 ± 67.2 | 19.2 ± 3.6 | – | – | – | 1790 | 2000 | – | 516 | 569 | – | – | 18.6 ± 2.99 | 18.8 ± 0.6 | COC(=O)N[C@H](C(=O)N[C@@H](Cc1ccccc1)[C@@H](O)CN(Cc1ccc(-c2ccccn2)cc1)NC(=O)[C@@H](NC(=O)OC)C(C)(C)C)C(C)(C)C [Atazanavir, atazanavir, reference compound]
